Measurements published in patent US4232121A, “Process for selecting methine dyes which inhibit cell growth” (Eastman Kodak Company, priority 1978, dated 1980).
Where two headings read alike, the source gives them in different places.

Assays:
[1] = system: Bacillus pumilus strain K-1; assay: Inhibition of bacterial growth, filter paper on inoculated agar plates; type: cell-based; conditions: for zone of inhibition at 1000 µM / zone of inhibition at 100 µM: Bacillus pumilus, read-out: Diameter of Inhibition
Description: Nutrient broth was prepared by mixing 8 grams of BACTO dehydrated nutrient broth per liter of distilled water. […] Samples of the nutrient broth were then inoculated with Bacillus pumilus strain K-1 culture. […]
Nutrient agar was prepared by mixing 23 grams of BACTO nutrient agar per liter of distilled water. The nutrient agar was sterilized in the same way as the nutrient broth. After it has cooled to about 45° C. 250 ml of the nutrient agar solution was aeseptically inoculated with 5 ml of the Bacillus pumilus, K-1 culture prepared in (A), above. Plates of the inoculated nutrient agar were then poured and allowed to harden.
[…] To minimize possible photocatalyzed reactions of the dyes, all preparations were performed under yellow lights and all incubations were performed in the dark.
Schleider and Schuell #740-E filter paper (12.7 mm diameter) was dipped in the dye solution, touched to the side of the beaker to removed excess dye, and placed in the center of the inoculated agar plates (prepared in (B) above). […] The plates were then examined to determine if bacterial growth had been affected by the dye-containing filter paper. […]
Control plates were prepared in which the filter paper contained methanol or a 0.2 molar aqueous solution of phenol. […]

[2] = not told
Description: If a published reduction potential is not available, suitable techniques for measuring reduction potential are available and can be used. […] This technique involves measurement at 20° C., of an approximately 10^-4 molar solution of the dye in an electrolyte, such as methanol which is 0.05 molar in lithium chloride, using a dropping mercury electrode. The potential values are reported by reference to a silver-silver chloride electrode in a saturated solution of potassium chloride at 20° C.

[3] = Oxidation potential (Eox) of the dye; type: physicochemical; conditions: Tables I, II, V, VI
Bacillus pumilus (K-1) = system: Bacillus pumilus (K-1)
Description: This can be accomplished by contacting a given concentration of the dye with the cells, removing the cells from the dye solution and then comparing the optical density (at λmax) of the remaining dye solution with a control containing the original concentration of the dye. The percentage decrease in optical density indicates the percentage of dye which has been bound to the cells.
The culture was collected by centrifugation at 5,000×g. for 10 minutes, and the resultant pellet was washed several times in cold 0.05 M potassium phosphate buffer, pH 7.0. The pellet was resuspended in the buffer solution to a final optical density of 1.0 at 620 nm as measured with a Bausch and Lomb Spectronic 20.
One-tenth ml of dye solution (1 mg/ml in methanol) was added to a tube containing 5 ml of cell suspension described above and a control tube containing 0.05 M potassium phosphate buffer, pH 7.0. All tubes were well agitated using a Vari-Whirl Mixer (Will Scientific Co.) and then centrifuged at 10,000×g. for 10 minutes.
The percent binding of dye to the cells for each dye, was determined by comparison of the density at λmax of the control supernatant sample with the density at λmax of the supernatant of the cell sample.

Sea Urchin Eggs = assay: Inhibition of cell division in fertilized sea urchin eggs; type: cell-based; conditions: arbitrary scale 0 to 5, 5 most active; dye 10^-5 to 10^-6 molar, 60 minutes after fertilization
Description: To suspensions in filtered sea water of fertilized sea urchin eggs there was added, three minutes after fertilization, methanolic solutions of the dyes in an amount sufficient to yield a final concentration of dye of between 10^-5 and 10^-6 molar. The final concentration of methanol was, at a maximum 1×10^-4 molar. The eggs were visually observed at 60 minutes after fertilization to determine if cell division and the formation of mitotic apparatus had been inhibited. A rating was assigned based on the concentration of dye required to inhibit cell division and synthesis of DNA.

[4] = K1, 72 h, Tables V and VI, 10^-3 molar, three days
[5] = K1, Table II, 10^-4 molar, 26° C., forty-eight hours
[6] = Table II, 10^-4 molar, 26° C., forty-eight hours

Row | Structure (SMILES) | ER [2] | Eox [3] | Activity Rating [1] | zone of inhibition at 100 µM [1, 5] | zone of inhibition at 100 µM ([1]; K1, Table IX, 10^-4 M) | % Bound (Bacillus pumilus (K-1)) | reduction potential (ER) [2] | Sea Urchin Eggs Activity (Sea Urchin Eggs) | other results
1 | CCN1C(=CC=Cc2oc3ccc(C)cc3[n+]2CC)Oc2ccc(C)cc21 [7,5,5'-dimethyl] | -1.28 | +.96 |  |  |  |  |  |  | zone of inhibition at 1000 µM [1, 4]: 27 mm
2 | CCN1C(=CC=Cc2oc3cc(Cl)ccc3[n+]2CC)Oc2cc(Cl)ccc21 [7,6,6'-dichloro] | -1.17 | +1.07 |  |  |  |  |  |  | zone of inhibition at 1000 µM [1, 4]: 28.5 mm
3 | CCN1C(=CC=Cc2oc3cc(OC)ccc3[n+]2CC)Oc2cc(OC)ccc21 [7,6,6'-dimethoxy] | -1.31 | +.84 |  |  |  |  |  |  | zone of inhibition at 1000 µM [1, 4]: 28.5 mm
4 | CCN1C(=CC=Cc2oc3cc(S(=O)(=O)[O-])ccc3[n+]2CC)Oc2cc(S(=O)(=O)O)ccc21 [7,6,6'-disulfo] | -1.26 | +1.00 |  |  |  |  |  |  | Diameter of Inhibition ([1]; Tables V and VI, 10^-3 molar, three days): None
5 | CCN1C(=CC=Cc2sc3ccc(Cl)cc3[n+]2CC)Sc2ccc(Cl)cc21 [17,5,5'-dichloro] | -.86 | +.85 |  |  |  |  |  |  | zone of inhibition at 1000 µM [1, 4]: 14 mm
6 | CCN1C(=CC=Cc2scc(-c3ccccc3)[n+]2CC)SC=C1c1ccccc1 [Dye 3] | -1.35 |  | 29 | 19 mm | 19 mm | 11.2% | -1.35 volts | +5 | zone of inhibition at 100 µM ([1]; K1, Table I, 10^-4 molar, 26° C., fifty hours, dark): 18.5 mm
7 | CCN1C(=CC=Cc2oc3cc(OC)ccc3[n+]2CC)Oc2cc(OC)ccc21 [Dye 4] |  |  | 71 |  |  | 97.2% | -1.31 volts | +4 | zone of inhibition at 1000 µM ([1]; K1, Table IX, 10^-3 M): 28.5 mm
8 | CCN1C(=CC=Cc2oc3ccc(C)cc3[n+]2CC)Oc2ccc(C)cc21 [Dye 5] |  |  | 65 |  |  | 97.6% | -1.28 volts | +4 | zone of inhibition at 1000 µM ([1]; K1, Table IX, 10^-3 M): 27 mm
9 | CCN1C(=CC=Cc2oc3ccc(OC(C)=O)cc3[n+]2CC)Oc2ccc(OC(C)=O)cc21 [Dye 10] | -1.17 |  | 80 |  |  | 68.8% | -1.17 volts |  | zone of inhibition at 1000 µM ([1]; K1, Table IX, 10^-3 M): 28.5 mm
10 | CCN1C(=CC(C)=Cc2sc3ccccc3[n+]2CC)Sc2ccccc21 [Dye 11] | -1.16 |  | 25 | 18 mm | 18 mm | 98.9% | -1.16 volts |  | 
11 | CCN1C(=Cc2sc3ccccc3[n+]2C)C=Cc2ccccc21 [Dye 14] | -1.08 |  | 11 | 15 mm | 15 mm | 58.3% | -1.08 volts |  | 
12 | CCC(=Cc1sc2ccc(Cl)cc2[n+]1CC)C=C1Sc2ccc(Cl)cc2N1CC [Dye 15] | -1.06 |  | 04 | 13.5 mm | 13.5 mm | 74.9% | -1.06 volts | +4 | 
13 | CCN1C(=Cc2ccc3ccccc3[n+]2CC)C=Cc2ccccc21 [Dye 16] | -1.03 |  | 100 | 25.5 mm | 25.5 mm | 28.7% | -1.03 volts | +5 | 
14 | CCN1C(=CC=Cc2sc3cc4ccccc4cc3[n+]2CC)Sc2cc3ccccc3cc21 [Dye 19] |  |  |  |  |  | 100% |  | 0 | 
15 | CCN1C(=CC=Cc2sc3ccc(Cl)cc3[n+]2CC)Sc2ccc(Cl)cc21 [Dye 20] |  |  | 9 |  |  | 76.3% | -0.86 volts | +3 | zone of inhibition at 1000 µM ([1]; K1, Table IX, 10^-3 M): 14 mm
16 | CCN1C(=CC=CC=Cc2sc3ccccc3[n+]2CC)Sc2ccccc21 [Dye 22] |  |  |  | 15 mm | 15 mm | 98.4% | -0.83 volts |  | Activity Rating ([1]; Table IX, 10^-4 M, relative to phenol concentration giving equal diameter, Dye 7 = 100): 11
17 | Clc1ccc2nc3c(nc2c1)N(c1ccccc1)C(=CC=Cc1n(-c2ccccc2)c2nc4ccc(Cl)cc4nc2[n+]1-c1ccccc1)N3c1ccccc1 [Dye 25] |  |  |  |  |  | 92.6% | -0.65 volts | 0 | 
18 | CCN1C(=CN=Nc2sc3ccccc3[n+]2CC)Sc2ccccc21 [Dye 26] |  | > +1.00 | 8 | 14.5 mm | 14.5 mm | 56.3% | -0.64 volts | +2 | 
19 | CCN1C(=CC=Cc2sc3cc4ccccc4nc3[n+]2CC)Sc2cc3ccccc3nc21 [Dye 27] |  | > +1.00 | 0 |  |  |  | -0.63 volts | 0 | Diameter of Inhibition [1, 6]: None; Diameter of Inhibition ([1]; Table IX, 10^-4 M): None
20 | CCN1C(=Cc2ccc3ccccc3[n+]2CC)Sc2cc([N+](=O)[O-])ccc21 [Dye 28] |  |  | 0 |  |  | 57.3% | -0.60 volts |  | Diameter of Inhibition [1, 6]: None; Diameter of Inhibition ([1]; Table IX, 10^-4 M): None
21 | Cn1c(-c2ccccc2)c(C=Cc2sc3cc([N+](=O)[O-])c(Cl)cc3[n+]2C)c2ccccc21 [Dye 31] |  | > +1.00 | 0 |  |  | 54.2% | -0.41 volts | 0 | Diameter of Inhibition [1, 6]: None; Diameter of Inhibition ([1]; Table IX, 10^-4 M): None
22 | Cn1c(-c2ccccc2)c(C=CC=C2C(c3ccccc3)=[N+](C)c3c2ccc2ccccc32)c2ccc3ccccc3c21 [Dye 34] |  |  | 0 |  |  | 75.0% | -0.11 volts | 0 | Diameter of Inhibition ([1]; Table I, 10^-4 molar, 26° C., fifty hours, dark): None; Diameter of Inhibition [1, 6]: None; Diameter of Inhibition ([1]; Table IX, 10^-4 M): None
